Experimental data as given in patent US20040106545A1, “Compounds and methods for modulating cell adhesion” (priority 1996, published 2004).
Like-named read-outs stand apart in the source and are kept apart here. Each block holds one molecule with its values, some of them ahead of it. Positions of bridges follow the written chain, without caps; N, C: chain ends. Residues, ends and D or L forms follow the SMILES beside them. *: point of attachment. For = O=C*

Key:
[1] = molecular target: T1, N-cadherin (Gallus gallus, UniProt P10288); test: Neurite outgrowth inhibition, rat neurons (Example 21); assay type: cell-based; details: 500 μg/mL
T1 construct: expressed in transfected cells; host or cells: 3T3 fibroblasts (monolayer)
T1 sequence (P10288 165-912): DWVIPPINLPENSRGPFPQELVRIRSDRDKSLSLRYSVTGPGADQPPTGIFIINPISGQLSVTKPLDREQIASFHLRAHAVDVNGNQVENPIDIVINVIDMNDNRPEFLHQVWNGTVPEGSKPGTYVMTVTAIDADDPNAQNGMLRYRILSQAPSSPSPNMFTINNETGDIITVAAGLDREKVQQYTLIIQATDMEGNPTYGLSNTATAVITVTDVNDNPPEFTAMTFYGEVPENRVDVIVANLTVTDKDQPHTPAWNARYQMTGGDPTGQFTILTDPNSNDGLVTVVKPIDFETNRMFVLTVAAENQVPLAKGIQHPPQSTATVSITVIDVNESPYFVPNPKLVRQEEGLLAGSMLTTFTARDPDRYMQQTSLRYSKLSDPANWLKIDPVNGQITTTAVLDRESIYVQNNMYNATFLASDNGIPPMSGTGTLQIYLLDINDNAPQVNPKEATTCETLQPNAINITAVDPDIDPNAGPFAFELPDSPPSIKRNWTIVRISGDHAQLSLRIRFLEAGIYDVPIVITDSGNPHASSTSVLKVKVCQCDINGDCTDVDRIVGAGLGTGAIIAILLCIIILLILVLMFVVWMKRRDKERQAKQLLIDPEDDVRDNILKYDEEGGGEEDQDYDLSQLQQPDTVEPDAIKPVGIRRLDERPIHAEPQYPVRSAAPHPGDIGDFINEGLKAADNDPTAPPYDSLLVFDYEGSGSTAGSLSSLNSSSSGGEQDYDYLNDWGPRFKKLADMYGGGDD

[2] = molecular target: T2, chick N-cadherin (Gallus gallus, UniProt P10288); test: Neurite outgrowth of rat cerebellar neurons on N-cadherin expressing 3T3 monolayers (Example 15); assay type: cell-based; details: for inhibitory activity on N-cadherin dependent neurite outgrowth, structure/activity statements: Tables 8 and 9; for reduction in inhibitory activity on flanking HAV with E-cadherin amino acids: 250 μg/mL (Table 8); for inhibition at 125 µg/mL: 125 μg/mL; for inhibition at 125 µg/mL / inhibition at 250 µg/mL: 16-18 hours, read-out: % Inhibition of N-Cadherin Dependent Neurite Outgrowth; for inhibition at 250 µg/mL / inhibition of N-cadherin dependent neurite outgrowth (in words): 250 μg/mL; for activity on N-cadherin dependent neurite outgrowth (in words): 125 micrograms/mL or below
T2 construct: expressed in transfected cells; host or cells: 3T3 fibroblasts (monolayer); rat post-natal day 2-3 cerebellar neurons plated on top
T2 sequence (P10288 165-912): T1 sequence (P10288 165-912)
Protocol: Cell culture and neurite outgrowth assays. Co-cultures of cerebellar neurons on monolayers of control 3T3 cells and monolayers of transfected 3T3 cells that express physiological levels of chick N-cadherin or human L1 were established as previously described (Williams et al., Neuron 13:583-594, 1994). In brief, 80,000 3T3 cells (control and transfected) were plated into individual chambers of an eight-chamber tissue culture slide coated with polylysine and fibronectin and cultured in DMEM/10% FCS. After 24 hours, when confluent monolayers had formed, the medium was removed and 3000 cerebellar neurons isolated from post-natal day 2-3 rats were plated into each well in SATO media (Doherty et al., Nature 343:464-466, 1990) supplemented with 2% FCS. All of the test peptides were added immediately before the neurons as a 2× stock prepared in SATO/2% FCS. The co-cultures were maintained for 16-18 hours, at which time they were fixed and immunostained for GAP-43 which is present only in the neurons and delineates the neuritic processes. The mean length of the longest neurite per cell was measured for 150-200 neurons sampled in replicate cultures as previously described (Williams et al., Neuron 13:583-594, 1994). […] Dose-response curves were evaluated and the EC50 values determined.

[3] = tested on: Madin Darby canine kidney (MDCK) cells; assay type: cell-based; details: for EC50, decrease of electrical resistance across MDCK cell monolayer: 18 hours
Protocol: Yet another assay evaluates the effect of a modulating agent on the electrical resistance across a monolayer of cells. For example, Madin Darby canine kidney (MDCK) cells can be exposed to the modulating agent dissolved in medium (e.g., at a final concentration of 0.5 mg/ml for a period of 24 hours). The effect on electrical resistance can be measured using standard techniques. This assay evaluates the effect of a modulating agent on tight junction formation in epithelial cells. In general, the presence of 500 μg/mL modulating agent should result in a statistically significant decrease in electrical resistance after 24 hours.
Madin Darby canine kidney (MDCK) cells were plated in Millicells (Millipore, Bedford, Mass.), at a density of 300,000 cells per Millicell, and cultured in Dulbecco's Modified Eagle Medium (DMEM; Sigma, St. Louis, Mo.) containing 5% fetal calf serum (Sigma, St. Louis, Mo.) until monolayers formed. Monolayers were exposed to the modulating agent dissolved in medium. The electrical resistance was measured using the EVOM device (World Precision Instruments, Sarasota, Fla.). At the time of measurement, fresh medium, with or without the modulating agent, may be added to the Millicells.

[4] = tested on: MDA-MB231; test: Cytotoxicity, MTT assay, MDA-MB231; assay type: cell-based, human
Protocol: (§1) N—Ac-CHAVC-NH2 (SEQ ID NO:10) and the control peptide N—Ac-CHGVC-NH2 (SEQ ID NO:11) were evaluated for possible cytotoxic effects on human microvascular endothelial (HMVEC; Clonetics), human umbilical vein endothelial (HUVEC; ATCC #CRL-1730), IAFp2 (human fibroblast cell line; Institute Armand-Frapier, Montreal, Quebec), WI-38 (human fibroblast cell line; ATCC #CCL-75), MDA-MB231 (human breast cancer cell line; ATCC #HTB-26), and PC-3 (human prostate cancer cell line; ATCC #CRL-1435) cells utilizing the MTT assay (Plumb et al., Cancer Res. 49:4435-4440, 1989). Neither of the peptides was cytotoxic at concentrations up to and including 100 μM. Similarly, neither of the peptides was capable of inhibiting the proliferation of the above cell lines at concentrations up to 100 μM, as judged by ^3H-thymidine incorporation assays.

[5] = tested on: PC-3; test: Cytotoxicity, MTT assay, PC-3; assay type: cell-based, human
Protocol: as §1

[6] = tested on: WI-38; assay type: cell-based, human; details: 3 h
Protocol: as §1

[7] = tested on: HMVEC; assay type: cell-based, human; details: 3 h
Protocol: as §1

[8] = tested on: MDA-MB231; assay type: cell-based, human; details: 3 h
Protocol: as §1

[9] = tested on: PC-3; assay type: cell-based, human; details: 3 h
Protocol: as §1

[10] = tested on: IAFp2; assay type: cell-based, human; details: 3 h
Protocol: as §1

[11] = tested on: HUVEC; assay type: cell-based, human; details: 3 h
Protocol: as §1

Molecule: N—Ac—CLFSHAVC—NH2 (Ac-CLFSHAVC-NH2; disulfide 1-8 (inferred))
effect on electrical resistance across MDCK cells (in words) [3]: loss of activity in this assay
EC50, decrease of electrical resistance across MDCK cell monolayer [3]: INACTIVE

Molecule: N—Ac—CHAVCE—NH2: cyclic peptide, SEQ ID NO:92 (Ac-CHAVCE-NH2; disulfide 1-5 (inferred))
EC50, decrease of electrical resistance across MDCK cell monolayer [3]: INACTIVE

Molecule: N—Ac—CLRAHAVC—NH2: cyclic peptide, SEQ ID NO:30 (Ac-CLRAHAVC-NH2; disulfide 1-8 (inferred))
inhibitory activity on N-cadherin dependent neurite outgrowth, structure/activity statements [2]: detrimental affect

Molecule: N—Ac—CHAVSSC—NH2: cyclic peptide, SEQ ID NO:44 (Ac-CHAVSSC-NH2; disulfide 1-7 (inferred))
EC50, decrease of electrical resistance across MDCK cell monolayer [3]: INACTIVE
reduction in inhibitory activity on flanking HAV with E-cadherin amino acids [2]: substantial

Molecule: CC(=O)N[C@H]1CSSC[C@@H](C(N)=O)NC(=O)[C@H](CC(=O)O)NC(=O)[C@H](C(C)C)NC(=O)CNC(=O)[C@H](Cc2c[nH]cn2)NC(=O)[C@H](C)NC1=O [N—Ac—CAHGVDC—NH2] (Ac-CAHGVDC-NH2; disulfide 1-7)
IC50 [4]: > 100 µM
IC50 [5]: > 100 µM
IC50 [6]: > 100 µM
IC50 [7]: > 100 µM
IC50 [8]: > 100 µM
IC50 [9]: > 100 µM
IC50 [10]: > 100 µM
IC50 [11]: > 100 µM

Molecule: CC(=O)N[C@H]1CSSC[C@@H](C(N)=O)NC(=O)[C@H](Cc2ccc(O)cc2)NC(=O)[C@H](C(C)C)NC(=O)[C@H](C)NC(=O)[C@H](Cc2c[nH]cn2)NC1=O [N—Ac—CHAVYC—NH2] (Ac-CHAVYC-NH2; disulfide 1-6)
inhibition at 125 µg/mL [2]: 64.9 ± 1.9%
inhibition at 250 µg/mL [2]: 64.9%
inhibitory activity on N-cadherin dependent neurite outgrowth, structure/activity statements [2]: potent inhibitors

Molecule: N—Ac—CHAVDINGC—NH2: cyclic peptide, SEQ ID NO:76 (Ac-CHAVDINGC-NH2; disulfide 1-9 (inferred))
inhibitory activity on N-cadherin dependent neurite outgrowth, structure/activity statements [2]: completely abrogates activity

Molecule: N—Ac—CSHAVSC—NH2: cyclic peptide, SEQ ID NO:40 (Ac-CSHAVSC-NH2; disulfide 1-7 (inferred))
EC50, decrease of electrical resistance across MDCK cell monolayer [3]: INACTIVE
reduction in inhibitory activity on flanking HAV with E-cadherin amino acids [2]: complete

Molecule: CC(=O)N[C@H]1CSSC[C@@H](C(N)=O)NC(=O)[C@H](Cc2c[nH]cn2)NC(=O)CNC(=O)[C@H](C(C)C)NC1=O [N—Ac—CVGHC—NH2] (Ac-CVGHC-NH2; disulfide 1-5)
IC50 [4]: > 100 µM
IC50 [5]: > 100 µM
IC50 [6]: > 100 µM
IC50 [7]: > 100 µM
IC50 [8]: > 100 µM
IC50 [9]: > 100 µM
IC50 [10]: > 100 µM
IC50 [11]: 30 µM

Molecule: N—Ac—CAHAVC—NH2: cyclic peptide, SEQ ID NO:22 (Ac-CAHAVC-NH2; disulfide 1-6 (inferred))
inhibition of N-cadherin dependent neurite outgrowth (in words) [2]: potent inhibitors of neurite outgrowth
activity on N-cadherin dependent neurite outgrowth (in words) [2]: lost activity
inhibitory activity on N-cadherin dependent neurite outgrowth, structure/activity statements [2]: little affect

Molecule: N—Ac—CLRAHAVDC—NH2: cyclic peptide, SEQ ID NO:32 (Ac-CLRAHAVDC-NH2; disulfide 1-9 (inferred))
inhibition of N-cadherin dependent neurite outgrowth (in words) [2]: potent inhibitors of neurite outgrowth
activity on N-cadherin dependent neurite outgrowth (in words) [2]: lost activity
inhibitory activity on N-cadherin dependent neurite outgrowth, structure/activity statements [2]: partial recovery of activity

Further lines, with some results ahead:

inhibition of neurite outgrowth [1]: (inhibition observed
Molecule: N—Ac—CRAHAVDC—NH2: cyclic peptide, SEQ ID NO:28 (Ac-CRAHAVDC-NH2; disulfide 1-8 (inferred))
inhibitory activity on N-cadherin dependent neurite outgrowth, structure/activity statements [2]: completely eliminated inhibitory activity

% inhibition of N-cadherin dependent neurite outgrowth [2]: 68.8+/−4.1%
Molecule: N—Ac-LRAHAVDING-NH2: linear 10-mer, SEQ ID NO:79 [reference compound]

inhibition at 250 µg/mL [2]: 74.7 ± 10.5%
Molecule: CC(C)[C@@H]1NC(=O)[C@H](C)NC(=O)[C@H](Cc2c[nH]cn2)NC(=O)[C@@H](NS(C)(=O)=O)CSSC[C@@H](C(N)=O)NC1=O [CH3—SO2—NH—CHAVC—NH2]
effect on electrical resistance across MDCK cells (in words) [3]: complete loss of activity
EC50, decrease of electrical resistance across MDCK cell monolayer [3]: INACTIVE

inhibition at 125 µg/mL [2]: 58 ± 4.3%
inhibitory activity on N-cadherin dependent neurite outgrowth, structure/activity statements [2]: potent inhibitors
Molecule: CC(=O)N[C@H]1CSSC[C@@H](C(N)=O)NC(=O)[C@@H]2CCCN2C(=O)[C@H](C(C)C)NC(=O)[C@H](C)NC(=O)[C@H](Cc2c[nH]cn2)NC1=O [N—Ac—CHAVPC—NH2] (Ac-CHAVPC-NH2; disulfide 1-6)

inhibition at 250 µg/mL [2]: 75.8 ± 5.6%
Molecule: CC(C)[C@@H]1NC(=O)[C@H](C)NC(=O)[C@H](Cc2c[nH]cn2)NC(=O)[C@@H](NC=O)CSSC[C@@H](C(=O)N[C@@H](CO)C(N)=O)NC1=O [H—C(O)—NH—CHAVCS—NH2] (For-CHAVCS-NH2; disulfide 1-5 (inferred))
